Results: PubChem BioAssay (NCI)
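A five-concentration, 48-hour dose response in 96-well plates underlies each endpoint, interpolated linearly between surrounding concentrations. Abbreviation: GI50, concentration required for 50% inhibition of growth. Definition used: TGI = concentration required for complete inhibition of growth.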

How the values were obtained:
Assay in all cases: DTP human tumour cell line panel, 48 h
MDA-MB-468 breast = tested on: MDA-MB-468 breast
786-0 renal = tested on: 786-0 renal
A498 renal = tested on: A498 renal
BT-549 breast = tested on: BT-549 breast
CAKI-1 renal = tested on: CAKI-1 renal
CCRF-CEM leukemia = tested on: CCRF-CEM leukemia
DU-145 prostate = tested on: DU-145 prostate
EKVX NSCLC = tested on: EKVX NSCLC
HL-60(TB) leukemia = tested on: HL-60(TB) leukemia
HOP-62 NSCLC = tested on: HOP-62 NSCLC
HOP-92 NSCLC = tested on: HOP-92 NSCLC
HS 578T breast = tested on: HS 578T breast
MOLT-4 leukemia = tested on: MOLT-4 leukemia
NCI-H226 lung = tested on: NCI-H226 lung
OVCAR-3 ovarian = tested on: OVCAR-3 ovarian
OVCAR-4 ovarian = tested on: OVCAR-4 ovarian
OVCAR-5 ovarian = tested on: OVCAR-5 ovarian
PC-3 prostate = tested on: PC-3 prostate
SF-268 CNS = tested on: SF-268 CNS
SK-MEL-28 melanoma = tested on: SK-MEL-28 melanoma
SK-OV-3 ovarian = tested on: SK-OV-3 ovarian
SN12C renal = tested on: SN12C renal
SNB-19 CNS = tested on: SNB-19 CNS
SNB-75 CNS = tested on: SNB-75 CNS
SR leukemia = tested on: SR leukemia
T-47D breast = tested on: T-47D breast
TK-10 renal = tested on: TK-10 renal
UACC-62 melanoma = tested on: UACC-62 melanoma
UO-31 renal = tested on: UO-31 renal

## c1cc(CNC23CC4CC(CC(C4)C2)C3)cc(C[N+](Cc2cccc(CNC34CC5CC(CC(C5)C3)C4)c2)(Cc2cccc(CNC34CC5CC(CC(C5)C3)C4)c2)Cc2cccc(CNC34CC5CC(CC(C5)C3)C4)c2)c1 (stereo not drawn)
MDA-MB-468 breast
  GI50: 3.33 µM
  TGI: 7.03 µM

## CCCCCCCC/C=C/CCCCCCCC(=O)OC[C@H]1O[C@@H](n2ccc(N)nc2=O)C(F)(F)[C@@H]1O
MDA-MB-468 breast
  GI50: < 0.0289 µM
  TGI: 3.76 µM

## COc1ccc(-c2n[nH]nc2-c2cc(OC)c(OC)c(OC)c2)cc1
MDA-MB-468 breast
  GI50: < 0.01 µM
  TGI: < 0.01 µM

## COc1cc(-c2ccc3c(c2)NC(=O)/C3=C\c2ccc[nH]2)ccc1O
MDA-MB-468 breast
  GI50: 0.179 µM
  TGI: > 50 µM

## O=C(N/N=C/c1ccc(Cl)cc1)c1ccc(C(F)(F)F)nc1Nc1cccc(C(F)(F)F)c1
MDA-MB-468 breast
  GI50: 1.12 µM
  TGI: 4.28 µM

## NC(=O)c1c(NC(=O)c2ccc(C(F)(F)F)cc2)sc2c1CCC(=O)C2
MDA-MB-468 breast
  GI50: 1.66 µM
  TGI: 4.22 µM

## COc1ccccc1CNCCCN1C(=O)c2ccc3c4c(ccc(c24)C1=O)C(=O)N(CCCOCCCCOCCCN)C3=O
MDA-MB-468 breast
  GI50: 0.288 µM
  TGI: 1.32 µM

## CCOC(=O)[C@@H](N)CCC(=O)N[C@@H](CSCc1ccccc1)C(=O)N[C@@H](C(=O)OCC)c1ccccc1
MDA-MB-468 breast
  GI50: 11.9 µM
  TGI: 24.9 µM

## COc1cc2nc3cc([N+](=O)[O-])ccc3c(NCCCNCCO)c2cc1OC
MDA-MB-468 breast
  GI50: 0.193 µM
  TGI: 0.467 µM

## CCCCC(O)(c1ccc(Cl)cc1)C(CN1CCOCC1)c1ccc(Cl)cc1 (stereo not drawn)
MDA-MB-468 breast
  GI50: 11.2 µM
  TGI: 25.9 µM

## COc1nc2ccccc2cc1-c1nc2c(cnn2-c2ccc(Br)cc2)c(=O)[nH]1
MDA-MB-468 breast
  GI50: 0.0219 µM
  TGI: 0.616 µM

## CC(C)n1nc(-c2cc3cc(O)ccc3[nH]2)c2c(N)ncnc21
MDA-MB-468 breast
  GI50: 0.163 µM
  TGI: 1.01 µM

## COc1ccc(Cn2cc3c(c2-c2ccccc2)CC(C)(C)c2cnoc2-3)cc1
MDA-MB-468 breast
  GI50: 0.542 µM
  TGI: 5.91 µM

## C[C@@]12CC=C3c4nc(Nc5cccc(O)c5)sc4CC[C@]3(C)[C@H]1CC[C@]1(C)C(=O)CC[C@@H]21
MDA-MB-468 breast
  GI50: 2.29 µM
  TGI: 5.21 µM

## COC(=O)[C@@H](C)CNS(=O)(=O)N(c1cc(C(F)(F)F)cc(C(F)(F)F)c1)C1CCN(Cc2ccc(F)cc2)CC1
MDA-MB-468 breast
  GI50: 3.25 µM
  TGI: 15.3 µM

## CN(C)C(=O)c1cc2cnc(Nc3ccc(-c4csc5c(=S)cc(N6CCOCC6)oc45)cc3)nc2n1C1CCCC1
MDA-MB-468 breast
  GI50: 0.397 µM
  TGI: 2.37 µM

## CC(C)(C)c1cc(C(C)(C)C)cc(S(=O)(=O)Nc2cc3ccccc3cc2C(=O)NCCN)c1
MDA-MB-468 breast
  GI50: 1.85 µM
  TGI: 3.39 µM

## CN1C/C=C\CCOc2cccc(c2)-c2ccnc(n2)Nc2cccc(c2)C1
MDA-MB-468 breast
  GI50: 0.0642 µM
  TGI: 0.289 µM

## C=C1C(=O)O[C@H]2[C@H]1CC/C(COC(=O)C(=O)c1cn(Cc3ccccc3)c3ccccc13)=C\CC[C@@]1(C)O[C@@H]21
MDA-MB-468 breast
  GI50: 1.88 µM
  TGI: 3.8 µM

## O=C1OC(C(O)CO)C(=O)C1=O (stereo not drawn)
MDA-MB-468 breast
  GI50: 1810 µM
  TGI: 4350 µM

## COc1cc2ncnc(Nc3ccc(C)c(O)c3)c2cc1OC
MDA-MB-468 breast
  GI50: 2.39 µM
  TGI: 8.87 µM

## O=C(NC1=CC(=O)c2ccccc2C1=O)c1ccccc1
MDA-MB-468 breast
  GI50: 1.08 µM
  TGI: 2.41 µM

## CN1CCN(CCCOc2ccc3nc(Nc4ccc(Cl)c(C(F)(F)F)c4)ccc3c2)CC1
MDA-MB-468 breast
  GI50: 12.2 µM
  TGI: 26.9 µM

## NS(=O)(=O)c1ccc(N=Nc2c(O)[nH]c3ccc(-c4cnco4)cc23)cc1
MDA-MB-468 breast
  GI50: > 25 µM
  TGI: > 25 µM

## COC(=O)[C@H](C)NC(=O)NC(=O)NC(=O)CI
MDA-MB-468 breast
  GI50: 9.14 µM
  TGI: 23.5 µM

## CNc1ccc(C(=O)CC(O)CCC(C)C2OC(=O)CC(O)CC(=O)CC(O)CC(O)CC(O)CC(O)CC3(O)CC(O)C(C(=O)OC)C(CC(O[C@@H]4O[C@H](C)[C@@H](O)[C@H](N)[C@@H]4O)/C=C/C=C/C=C/C=C/C=C/C=C/C=C/C2C)O3)cc1 (stereo partly drawn)
MDA-MB-468 breast
  GI50: 5.14 µM
  TGI: 25 µM

## CNCc1cccc2c1OCCCCCC[C@@](C)(O)CC1(CC1)S(=O)(=O)c1ccc(cc1)-c1cnc(N)c(n1)C(=O)N2
786-0 renal
  GI50: 0.0536 µM
  TGI: 14.2 µM
A498 renal
  GI50: 3.93 µM
  TGI: 25.4 µM
BT-549 breast
  GI50: 0.716 µM
  TGI: 14.5 µM
CAKI-1 renal
  GI50: 0.365 µM
  TGI: 5.76 µM
CCRF-CEM leukemia
  GI50: 0.0102 µM
  TGI: 0.634 µM
DU-145 prostate
  GI50: 1.03 µM
  TGI: 2.88 µM
EKVX NSCLC
  GI50: 1.42 µM
  TGI: 4.86 µM
HL-60(TB) leukemia
  GI50: 0.0197 µM
  TGI: 0.324 µM
HOP-62 NSCLC
  GI50: 1.98 µM
  TGI: 4.65 µM
HOP-92 NSCLC
  GI50: 1.82 µM
  TGI: 4.55 µM
HS 578T breast
  GI50: 0.28 µM
  TGI: 4.3 µM
MOLT-4 leukemia
  GI50: 0.0102 µM
  TGI: 2.19 µM
NCI-H226 lung
  GI50: 1.53 µM
  TGI: 4.18 µM
OVCAR-3 ovarian
  GI50: 1.26 µM
  TGI: 4.73 µM
OVCAR-4 ovarian
  GI50: 2.93 µM
  TGI: 26.3 µM
OVCAR-5 ovarian
  GI50: 2 µM
  TGI: 5.82 µM
PC-3 prostate
  GI50: 0.599 µM
  TGI: 3.82 µM
SF-268 CNS
  GI50: 1.41 µM
  TGI: 4.18 µM
SK-MEL-28 melanoma
  GI50: 1.3 µM
  TGI: 2.65 µM
SK-OV-3 ovarian
  GI50: 1.54 µM
  TGI: 19.4 µM
SN12C renal
  GI50: 1.26 µM
  TGI: 13.9 µM
SNB-19 CNS
  GI50: 1.88 µM
  TGI: 4.36 µM
SNB-75 CNS
  GI50: 0.213 µM
  TGI: 16.3 µM
SR leukemia
  TGI: 0.173 µM
T-47D breast
  GI50: 3.24 µM
  TGI: > 88.8 µM
TK-10 renal
  GI50: 1.55 µM
  TGI: 18.6 µM
UACC-62 melanoma
  GI50: 1.6 µM
  TGI: 3.06 µM
UO-31 renal
  GI50: 0.0741 µM
  TGI: 2.15 µM

## COc1cc2c(c(OC)c1OC)-c1ccc(OC)c(=O)cc1[C@@H](NC(=O)c1ccccc1)CC2
MDA-MB-468 breast
  GI50: 0.0552 µM
  TGI: > 100 µM

## COc1cc(/C=C/c2cc(/C=C/c3ccc(O)c(OC)c3)n(C(=O)Nc3ccc(F)c(Cl)c3)n2)ccc1O
MDA-MB-468 breast
  GI50: 0.266 µM
  TGI: 0.829 µM

## CN1CCN(Cc2ccc(NC(=O)c3cncc(C#Cc4cnc5ccc(O[C@@H]6CCOC6)nn45)c3)cc2C(F)(F)F)CC1
MDA-MB-468 breast
  GI50: 0.209 µM
  TGI: 0.834 µM
